Test in all cases: ≥ marks a high value that may be exact or a test limit, other limits are often not marked, values filed in µg/mL are converted to µM
Test [1] concerns Candida albicans ATCC 18804.
Test [2] concerns Staphylococcus aureus ATCC 25923.
The test system of test [3] is Escherichia coli ATCC 25922.
In test [4] the test system is Escherichia coli CCARM 1238.
Test [5] relates to Salmonella enterica subsp. enterica serovar Choleraesuis C78-1.
Test [6] deals with Pseudomonas aeruginosa KCTC 1637.
Test [7] deals with Salmonella typhimurium SL1344.
For test [8], the system named is Staphylococcus epidermidis LY8.
Test [9] deals with Pasteurella multocida.
Test [10] has as its system Listeria monocytogenes CICC 21533.
Test [11] deals with Proteus vulgaris KCTC 2433.
The subject of test [12] is Streptococcus pyogenes KCTC 3096.
Test [13] relates to Escherichia coli KCTC 1682.
Test [14] concerns Staphylococcus aureus KCTC 1621.
The test system of test [15] is Pasteurella multocida C48-3.
The test system of test [16] is Salmonella typhimurium CCARM 8013.
For test [17], the system named is Salmonella typhimurium KCTC 1926.
For test [18], the system named is Escherichia coli E44813.
In test [19] the test system is Escherichia coli ATCC 12795.
Test [20] has as its system Pseudomonas aeruginosa ATCC 15692.
Test [21] deals with Bacillus subtilis CICC 24434.
Test [22] deals with Escherichia coli CCARM 1229.
Test [23] concerns Bacillus subtilis KCTC 1918.
Test [24] concerns Salmonella typhimurium CCARM 8009.

Converted amounts (≈) assume the structure as drawn. Bounds are passed on as bounds.

Usually MIC stands for the lowest concentration found to suppress growth. A low value points to a more susceptible organism. With `CC[C@H](C)[C@H](NC(=O)[C@H](C)NC(=O)[C@H](CCC(=O)O)NC(=O)[C@H](CO)NC(=O)[C@@H](N)Cc1ccccc1)C(=O)N[C@@H](CCCCN)C(=O)N[C@@H](CCCCN)C(=O)N[C@H](C(=O)N[C@H](C(=O)N[C@@H](CC(=O)O)C(=O)N[C@@H](Cc1ccccc1)C(=O)N[C@@H](CC(C)C)C(=O)NCC(=O)N[C@@H](CCC(=O)O)C(=O)NCC(=O)N[C@@H](CC(C)C)C(=O)N[C@@H](Cc1ccccc1)C(=O)N[C@@H](CC(=O)O)C(=O)N[C@H](C(=O)N[C@H](C(=O)N[C@@H](CCCCN)C(=O)N[C@@H](CCCCN)C(=O)N[C@H](C(=O)N[C@@H](C)C(=O)N[C@@H](CCC(=O)O)C(=O)N[C@@H](CO)C(=O)N[C@@H](Cc1ccccc1)C(=O)O)[C@@H](C)CC)[C@@H](C)CC)[C@@H](C)CC)[C@@H](C)CC)[C@@H](C)CC` [FSEAIKKIIDFLGEGLFDIIKKIAESF], the MIC in test [1] was at least 128 µM; in test [2], above 128 µM; in test [3] it was 128 µM (≈ 393 µg/mL).
As to `CC[C@H](C)[C@H](NC(=O)[C@@H](NC(=O)[C@@H](N)CCCN=C(N)N)[C@@H](C)CC)C(=O)N[C@@H](CC(=O)O)C(=O)N[C@@H](CC(C)C)C(=O)N[C@@H](CC(C)C)C(=O)N[C@@H](Cc1c[nH]c2ccccc12)C(=O)N[C@@H](CCCN=C(N)N)C(=O)N[C@H](C(=O)N[C@@H](CCCN=C(N)N)C(=O)N[C@@H](CCCN=C(N)N)C(=O)N1CCC[C@H]1C(=O)N[C@@H](CCC(N)=O)C(=O)N[C@@H](CCCCN)C(=O)N1CCC[C@H]1C(=O)N[C@@H](CCCCN)C(=O)N[C@@H](Cc1ccccc1)C(=O)N[C@H](C(=O)N[C@H](C(=O)N[C@H](C(=O)N[C@@H](Cc1c[nH]c2ccccc12)C(=O)N[C@H](C(=O)N[C@@H](CCCN=C(N)N)C(=O)O)C(C)C)C(C)C)[C@@H](C)O)C(C)C)C(C)C` [RIIDLLWRVRRPQKPKFVTVWVR], the MIC in [4] was found to be 2 µM (≈ 5.93 µg/mL); in test [5], 0.527 µM (≈ 1.56 µg/mL); in [6] it was 1.56 µM (≈ 4.62 µg/mL); in test [7], 1.05 µM (≈ 3.12 µg/mL); in test [8], 8.44 µM (≈ 25 µg/mL); in [9] it was 6.8 µM (≈ 20.1 µg/mL). For the same compound, the MIC in test [2] is 0.0165 µM (≈ 0.0489 µg/mL); in test [10], at least 42.2 µM; in [11], 16 µM (≈ 47.4 µg/mL); in [12] it was 1.56 µM (≈ 4.62 µg/mL); in test [3], 4 µM (≈ 11.9 µg/mL); in [13], 1.56 µM (≈ 4.62 µg/mL). The MIC in test [14] came out at 3.12 µM (≈ 9.26 µg/mL); in [15] it was 1.05 µM (≈ 3.12 µg/mL); in test [16], 4 µM (≈ 11.9 µg/mL); in [17], 1.77 µM (≈ 5.23 µg/mL); in test [18], 8.44 µM (≈ 25 µg/mL); in test [19] it was 0.4 µM (≈ 1.19 µg/mL). For the same compound, the MIC came to 8 µM (≈ 23.7 µg/mL) in [20]; 0.527 µM (≈ 1.56 µg/mL) in [21]; 4 µM (≈ 11.9 µg/mL) in [22]; 1.56 µM (≈ 4.62 µg/mL) in [23]; 4 µM (≈ 11.9 µg/mL) in test [24].
